# Measurements as given in patent publication US20240245677A1, “SELECTED COMPOUNDS FOR TARGETED DEGRADATION OF BRD9” (C4 THERAPEUTICS, INC., priority 2021, published 2024).
# “And” between values parts separate entries of the source, which are not always exact repeats. Identical values can stand only once. Like-named read-outs stand apart in the source and are kept apart here.
# Assays:
# [1] = test system: cryopreserved hepatocytes from cynomolgus monkeys; experiment: Monkey Hepatocyte Stability Assay; type: in vitro ADME, cynomolgus monkey
# Experimental: (§1) The metabolic stability of Compound 1 was evaluated using cryopreserved hepatocytes from mice, rats, dogs, cynomolgus monkeys, and humans.
# (§2) 50 μL of 1 mM intermediate solutions for each test compound was prepared by adding 5 μL of 10 mM stock solution to 45 μL of a 1:1 mixture of water and acetonitrile. A 2 μM working stocks for each test compound were prepared in incubation media, InvitroGRO™ KHB (Bio IVT, Westbury, NY, USA), by adding 2 μL of 1 mM intermediate stock to 998 μL of incubation media.
# (§3) To thaw the hepatocytes, InvitroGRO™ HT thawing medium (BioIVT, Westbury, NY, USA) was prewarmed to 37° C., and 48 mL of warmed thawing medium was transferred to a sterile 50 mL conical tube. The hepatocyte vial was removed from the liquid nitrogen Dewar, and gently thawed in a water bath at 37° C. for 1-2 minutes, then the contents of the vial were emptied into a conical tube with prewarmed InvitroGRO HT medium. 1 mL of prewarmed InvitroGRO HT medium was added to each emptied hepatocyte vial to resuspend any remaining cells, and the contents were pipetted into the hepatocyte suspension. The tube containing the hepatocyte suspension was centrifuged at 50*g for 5 minutes. The supernatant was removed carefully, and the remaining pellet was resuspended by adding 1 mL of incubation media, InvitroGRO KHB, and gently shaking until there were no clumps.
# (§4) Cell viability was determined using the trypan blue method. 25 μL of hepatocyte cell suspension was added to a trypan blue (TB) solution (containing 775 μL InvitroGRO KHB and 200 μL of Trypan Blue). Cell count was taken using a hemacytometer.
# (§5) For mouse hepatocytes, 200 μL of hepatocytes (0.8×10^6 cells/mL) were added to the wells of a 48 well plate (Catalog No. 92048, TPP Techno Plastic Products AG, Trasadingen, Switzerland) and pre-incubated for 30 minutes at 37° C. For rat, dog, monkey, […], 200 μL of hepatocytes (2×10^6 cells/mL) were added to the wells of a 48 well plate (Catalog No. 92048, TPP Techno Plastic Products AG, Trasadingen, Switzerland) and pre-incubated for 30 minutes at 37° C.
# (§6) For all species of hepatocytes, once the pre-incubation period was complete, 200 μL of 2 μM working stock of test compound was added to the wells of the plate, and the plate was vortexed on a Vibramax™ 100 (P/N 544-21200-00, Heidolph Instruments GmbH & Co. KG, Schwabach, Germany) at 500 rpm in a 37° C. CO2 incubator (Model No. 51026280, ThermoFisher Scientific, Waltham, MA, USA). At each time point of 0, 15, 30, 60, 90, and 120 minutes, 50 μL of incubation mixture was precipitated with 200 μL of acetonitrile containing internal standard.
# (§7) At the end of the experiment, the samples were centrifuged at 4000 rpm for 10 minutes. […]
# [2] = Monkey Hepatocyte Stability Assay; type: in vitro ADME, cynomolgus monkey; conditions: cryopreserved hepatocytes
# Experimental: as §1, §2, §3, §4, §5, §6, §7
# CRBN-DDB1 = target: T1, CRBN-DDB1 (Homo sapiens, UniProt Q96SW2); experiment: Fluorescence polarization competition binding assay, CRBN-DDB1; conditions: FP competition
# T1 construct: His; purchased Wuxi Biortus Biosciences Co., Ltd
# Experimental: Fluorescence polarization (FP) competition experiments were used to determine the binding affinity of Compound 1 to purified CRBN-DDB1 protein.
# Human Histidine (His) CRBN and non-tag DDB1 (CRBN-DDB1 (5.64 mg/mL in 25 mM HEPES, 300 mM NaCl, 1 mM TCEP, pH 7.5)) was purchased from Wuxi Biortus Biosciences Co., Ltd. (Jiangsu, China) and stored at −80° C. until use. Potent CRBN-DDB1 ligand was chemically labeled with the commercially available fluorophore Alexa Fluor™ 647 (Invitrogen, Waltham, MA, USA) following manufacturer's instructions. Fluorescently labelled CRBN-DDB1 binding compound at 0.3 mM in DMSO was stored at −20° C.
# The determination of the binding constant (Kd) of Compound 1 to CRBN-DDB1 was carried out using an established, sensitive and quantitative in vitro fluorescence polarization (FP) binding assay (Nasir & Jolley, 1999). […]
# A 20 μL mixture containing 150 nM CRBN-DDB1 and 5 nM probe dye in 50 mM HEPES, pH 7.4, 200 mM NaCl, 1 mM TCEP and 0.05% Pluronic Acid F-127 was added to wells containing compound and incubated at room temperature for 1.5 hours. […] Matching control plates excluding CRBN-DDB1 were used to correct for background fluorescence (Shapiro et al., 2009). Plates were read on an EnVision® multimode plate reader (Catalog No. 2104-0010, Perkin Elmer Inc., Dumfries, VA, USA) with Cy5 polarization filters and mirror. […]
smiles,measurement,setting,value
"COc1cc(-c2cn(C)c(=O)c(C)c2C)cc(OC)c1CN1CC[C@H](N2CCN(c3ccc(N[C@H]4CCC(=O)NC4=O)cc3F)CC2)C(F)(F)C1 [Compound 1, (S)-3-((4-(4-((S)-1-(2,6-dimethoxy-4-(1,4,5-trimethyl-6-oxo-1,6-dihydropyridin-3-yl)benzyl)-3,3-difluoropiperidin-4-yl)piperazin-1-yl)-3-fluorophenyl)amino)-piperidine-2,6-dione]",CLhb scaled well stirred,[1],24.7 mL/min/kg body wt.
same,half-life at 1 µM,[2],44.2 min
same,hepatocyte CLint at 1 µM,[2]; read-out: CL int cells,15.7 µL/min/1e6 cells
same,CLint scaled at 1 µM,[2]; read-out: CL int in vivo,56.5 mL/min/kg
same,Kd,"CRBN-DDB1; each occasion in duplicate, read-out: Kd, individual test occasion",2100 nM and 1600 nM and 2300 nM
same,Kd,"CRBN-DDB1; n=3, read-out: Kd (geometric mean), binding to CRBN-DDB1",2000 nM
